How the values were obtained:
Experiment in all cases: relative viability (nuclei count vs DMSO), 5 days (fraction); higher = more cells survive
Quizartinib + Decitabine = compound: CC(C)(C)c1cc(NC(=O)Nc2ccc(-c3cn4c(n3)sc3cc(OCCN5CCOCC5)ccc34)cc2)no1 [Quizartinib] + Nc1ncn([C@H]2C[C@H](O)[C@@H](CO)O2)c(=O)n1 [Decitabine] (partner 2 µM)
Method in brief: (§1)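 Nuclei were stained with Hoechst during a one-step fixation (final 0.05% Triton X-100, 1% formaldehyde, 1 ug/ml Hoechst) carried out 5 days after dosing, then counted on 4× images. The cells, lung cancer lines in 1536-well plates, had been dosed by pin tool the day after seeding with one drug alone or a fixed anchor-drug dose plus five library-drug doses (not always all listed) in √10 steps. Relative viability is the nuclei count in treated wells divided by that in vehicle wells, and each value is the median of duplicate plates.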

Quizartinib + Vorinostat = compound: CC(C)(C)c1cc(NC(=O)Nc2ccc(-c3cn4c(n3)sc3cc(OCCN5CCOCC5)ccc34)cc2)no1 [Quizartinib] + O=C(CCCCCCC(=O)Nc1ccccc1)NO [Vorinostat] (partner 1 µM)
Method in brief: as §1

Quizartinib + Olaparib = compound: CC(C)(C)c1cc(NC(=O)Nc2ccc(-c3cn4c(n3)sc3cc(OCCN5CCOCC5)ccc34)cc2)no1 [Quizartinib] + O=C(c1cc(Cc2n[nH]c(=O)c3ccccc23)ccc1F)N1CCN(C(=O)C2CC2)CC1 [Olaparib] (partner 8 µM)
Method in brief: as §1

YM155 + Tozasertib = compound: COCC[n+]1c2c(n(Cc3cnccn3)c1C)C(=O)c1ccccc1C2=O [YM155] + Cc1cc(Nc2cc(N3CCN(C)CC3)nc(Sc3ccc(NC(=O)C4CC4)cc3)n2)n[nH]1 [Tozasertib] (partner 0.1 µM)
Method in brief: as §1

YM155 + Decitabine = compound: COCC[n+]1c2c(n(Cc3cnccn3)c1C)C(=O)c1ccccc1C2=O [YM155] + Nc1ncn([C@H]2C[C@H](O)[C@@H](CO)O2)c(=O)n1 [Decitabine] (partner 2 µM)
Method in brief: as §1

YM155 + Vorinostat = compound: COCC[n+]1c2c(n(Cc3cnccn3)c1C)C(=O)c1ccccc1C2=O [YM155] + O=C(CCCCCCC(=O)Nc1ccccc1)NO [Vorinostat] (partner 1 µM)
Method in brief: as §1

NCI-H1648
relative viability (Quizartinib + Decitabine; first compound 0.003162 µM): 0.461 | relative viability (Quizartinib + Decitabine; first compound 0.03162 µM): 0.548 | relative viability (Quizartinib + Decitabine; first compound 0.1 µM): 0.745 | relative viability (Quizartinib + Vorinostat; first compound 0.003162 µM): 0.315 | relative viability (Quizartinib + Vorinostat; first compound 0.03162 µM): 0.32 | relative viability (Quizartinib + Vorinostat; first compound 0.1 µM): 0.927 | relative viability (Quizartinib + Olaparib; first compound 0.003162 µM): 0.985 | relative viability (Quizartinib + Olaparib; first compound 0.03162 µM): 0.604 | relative viability (Quizartinib + Olaparib; first compound 0.1 µM): 0.909 | relative viability (YM155 + Tozasertib; first compound 0.002 µM): 0.386 | relative viability (YM155 + Tozasertib; first compound 0.006325 µM): 0.605 | relative viability (YM155 + Tozasertib; first compound 0.02 µM): 0.586 | relative viability (YM155 + Tozasertib; first compound 0.06325 µM): 0.427 | relative viability (YM155 + Decitabine; first compound 0.006325 µM): 0.593 | relative viability (YM155 + Decitabine; first compound 0.02 µM): 0.41 | relative viability (YM155 + Decitabine; first compound 0.06325 µM): 0.599 | relative viability (YM155 + Vorinostat; first compound 0.006325 µM): 0.386 | relative viability (YM155 + Vorinostat; first compound 0.02 µM): 0.565 | relative viability (YM155 + Vorinostat; first compound 0.06325 µM): 0.301

From the supplement of paper PMC10307832
